Data set [1] concerns HSAX2655 tumor. As to the kind of experiment: Well differentiated liposarcoma (WDLPS) patient-derived in vivo model HSAX2655, efficacy. On the set-up: species or system Harlan nude mice. The following applies: p.o., q24h, Compound A 30 mg/kg, Compound C 75 mg/kg; for Tumor T/C: day 14 post 1st treatment; for Tumor ΔTvol: day 37 post transplantation (day 14 post 1st treatment). How it is done:
PDX tumors were induced by transplanting subcutaneously frozen pieces of tumors in the right flank of Harlan nude mice. After several weeks of growth, donor animals were sacrificed and tumors were taken out and cut in 3×3×3 mm^3 pieces. Each tumor piece was transplanted subcutaneously in the right flank of naive Harlan nude mice. Efficacy experiment could start 30 days post transplantation. Compounds A and C were formulated fresh for each administration. The compounds were dissolved in 0.5% methylcellulose. For efficacy experiments, mice were randomized into groups of n=5 and treated for 14 days. Compound A was injected at 30 mg/kg and Compound C at 75, 150 and 250 mg/kg. Mice were treated daily (q24 h) p.o. at 10 ml/kg for both drugs. On the last day of experiment, mice from each treatment group were sacrificed 4 and 24 h post last treatment and tumors were snap-frozen. Efficacy and tolerability were assessed by determining tumor volume and body weight, respectively. Tumor volume (TVol), determined from caliper measurements (using the formula I*w*h*π/6) were measured three times per week. Tumor response was quantified by the change in tumor volume (endpoint minus starting value in mm^3) as the T/C i.e. [formula] In the case of tumor regression, the tumor response was quantified by the percentage of regression of the starting TVol, ie Differences between the means of TVol and BW were assessed on the endpoint ΔTvol or % ΔBW using a 1-way ANOVA with Dunnett or Tukey's tests post-hoc. Linear correlations were explored by determining Pearson correlation coefficient, with P<0.05 considered as significant. A non-statistical analysis of the combination effects of therapy on the efficacy were calculated using a modification of the method described by Clark (1997) to obtain a Combination Index (CI). Thus, multiplication of the AUC-T/Cs for single agents A and B was compared to the AUC-T/C obtained for the actual combination A+B.

Data set [2] in a line: Tolerability in HSAX2655-tumor bearing mice (body weight, survival). It counts as in vivo. The note with it: p.o., q24h, Compound A 30 mg/kg, Compound C 75 mg/kg, day 14 post 1st treatment; for Host Survival: survivors/group. How it is done:
Compounds A and C were formulated fresh for each administration. The compounds were dissolved in 0.5% methylcellulose. For efficacy experiments, mice were randomized into groups of n=5 and treated for 14 days. Compound A was injected at 30 mg/kg and Compound C at 75, 150 and 250 mg/kg. Mice were treated daily (q24 h) p.o. at 10 ml/kg for both drugs. On the last day of experiment, mice from each treatment group were sacrificed 4 and 24 h post last treatment and tumors were snap-frozen.
Efficacy and tolerability were assessed by determining tumor volume and body weight, respectively. Tumor volume (TVol), determined from caliper measurements (using the formula I*w*h*π/6) were measured three times per week. Tumor response was quantified by the change in tumor volume (endpoint minus starting value in mm^3) as the T/C i.e.
[formula] The body-weight (BW) of the mice was measured three times per week allowing calculation at any particular time-point relative to the day of initiation of treatment (day 0) of both the percentage change in BW (Δ % BW).
Differences between the means of TVol and BW were assessed on the endpoint ΔTvol or % ΔBW using a 1-way ANOVA with Dunnett or Tukey's tests post-hoc. Linear correlations were explored by determining Pearson correlation coefficient, with P<0.05 considered as significant.

Data set [3] deals with liposarcoma cell line LP6. Kind of data set: Microscopy (nuclei count) proliferation assay, 72 hrs, LP6 cells. It counts as cell-based. The note with it: single agent. How it is done: (§1) Compounds B and C were dissolved in 100% DMSO (Sigma, Catalog number D2650) at concentrations of 10 mM and stored at −20° C. until use. Compounds were arrayed in 300 uL deep well 384-well plates (BrandTec, Catalog number 701355) at 8× the highest final concentration. Row and column dilutions were prepared separately using a Bravo liquid handler (Agilent Technologies). Dilutions were made at 1:2 giving a total of 10 dilutions for each compound. Once completed the row and column dilution plates were combined 1:1 giving a final stamping plate at 4× concentration.
(§2) The cell lines 449b, 778 and LP6 were cultured in RPMI1640 (ATCC, Catalog number 30-2110) supplemented with 10% FBS (HyClone, Catalog number SH30071.03) at 37° C. and 5% CO2. In all cases cells were thawed from frozen stocks, expanded through ≥1 passage using 1:6 dilutions. Cells were counted and assessed for viability using a ViCell counter (Beckman-Coulter). The identity of all the cell lines was confirmed by SNP profiling. […]
(§3) An automated image analysis pipeline was established using custom-made scripts in the open-source, statistical programming language R, and functions of the BioConductor package EBImage. The goal was to quantify the number of viable nuclei (cells) per well as an approximation for cell viability. […]

Data set [4] relates to liposarcoma cell line 449b. Kind of data set: Microscopy (nuclei count) proliferation assay, 72 hrs, 449b cells. The note with it: single agent. The format is cell-based. How it is done:
as §1, §2, §3

The subject of data set [5] is liposarcoma cell line 778. As to the kind of experiment: Microscopy (nuclei count) proliferation assay, 72 hrs, 778 cells. It counts as cell-based. The note with it: single agent. How it is done:
as §1
The cell lines 449b, 778 and LP6 were cultured in RPMI1640 (ATCC, Catalog number 30-2110) supplemented with 10% FBS (HyClone, Catalog number SH30071.03) at 37° C. and 5% CO2. In all cases cells were thawed from frozen stocks, expanded through ≥1 passage using 1:6 dilutions. Cells were counted and assessed for viability using a ViCell counter (Beckman-Coulter). The identity of all the cell lines was confirmed by SNP profiling.
All cells were seeded at a concentration of […] cells/mL in 30 uL RPMI1640 media using a BioTek MicroFill (BioTek). Four 384-well plates were prepared per cell line (Greiner bio-one, catalog number 781091). The next day, compound was added using Bravo liquid handler. […] To other plates, compound was added and plates were incubated for 72 hrs. Following incubation period, 10 ul of the media was removed using the ELx405 Microplate Washer (BioTek/Thermo Scientific). […]
as §3

`COc1cc2c(cc1OC(C)C)[C@H](c1ccc(Cl)cc1)N(c1ccc(N(C)C[C@H]3CC[C@H](N4CCN(C)C(=O)C4)CC3)cc1)C(=O)C2` [Compound A, (S)-1-(4-Chloro-phenyl)-7-isopropoxy-6-methoxy-2-(4-{methyl-[4-(4-methyl-3-oxo-piperazin-1-yl)-trans-cyclohexylmethyl]-amino}-phenyl)-1,4-dihydro-2H-isoquinolin-3-one]: in data set [1], the “Tumor T/C” value was 6% and the “Tumor ΔTvol” value is 24 ± 12 ^a mm^3. In data set [2], the “Host ΔBW” value is 6.9 ± 2.0% and the “Host Survival” value is on record as 5/5.

One may read the IC50 as the concentration that inhibits the measured activity by half. For `COc1ncc(-c2nc3c(n2C(C)C)[C@H](c2ccc(Cl)cc2)N(c2cc(Cl)cn(C)c2=O)C3=O)c(OC)n1` [Compound B, (S)-5-(5-Chloro-1-methyl-2-oxo-1,2-dihydro-pyridin-3-yl)-6-(4-chloro-phenyl)-2-(2,4-dimethoxy-pyrimidin-5-yl)-1-isopropyl-5,6-dihydro-1H-pyrrolo[3,4-d]imidazol-4-one], the IC50 in data set [3] is 86 nM; in data set [4], 27.7 nM; in data set [5] (72 h), 46.6 nM; in data set [5], 64.6 nM.

Consider `CN(C)C(=O)c1cc2cnc(Nc3ccc(N4CCNCC4)cn3)nc2n1C1CCCC1` [Compound C, 7-Cyclopentyl-2-(5-piperazin-1-yl-pyridin-2-ylamino)-7H-pyrrolo[2,3-d]pyrimidine-6-carboxylic acid dimethylamide], for which the values for the IC50 in data set [3], in data set [4] and in data set [5] (72 h) were 475 nM, 130 nM and 59.3 nM, respectively. For the same molecule, in data set [1], the “Tumor T/C” value was 18%. The “Tumor ΔTvol” value in data set [1] is 66 ± 18 ^a mm^3. Besides, the “Host ΔBW” value in data set [2] worked out at 4.7 ± 2.3%. In addition, in data set [2], the “Host Survival” value is 5/5.
